For assay [1], the target named is T1, ribose-5-phosphate isomerase (Spinacia oleracea) (UniProt Q8RU73).
T1 sequence (whole entry): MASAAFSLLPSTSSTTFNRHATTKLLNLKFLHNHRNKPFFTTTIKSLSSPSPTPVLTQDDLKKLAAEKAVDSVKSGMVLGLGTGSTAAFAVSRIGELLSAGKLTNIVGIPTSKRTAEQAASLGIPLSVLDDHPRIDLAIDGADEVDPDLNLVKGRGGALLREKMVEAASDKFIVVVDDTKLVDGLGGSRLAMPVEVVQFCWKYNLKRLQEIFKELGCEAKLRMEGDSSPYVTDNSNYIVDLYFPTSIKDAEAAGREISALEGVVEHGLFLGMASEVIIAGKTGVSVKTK
The assay is described as follows: Competitive inhibition of Spinacia oleracea RPIA assessed as ratio of Km/Ki using D-ribose-5-phosphate as substrate by Cheng-Prusoff equation analysis.

The target in assay [2] is T2, Ribose-5-phosphate isomerase B (Escherichia coli (strain K12)) (UniProt P37351).
T2 sequence (whole entry): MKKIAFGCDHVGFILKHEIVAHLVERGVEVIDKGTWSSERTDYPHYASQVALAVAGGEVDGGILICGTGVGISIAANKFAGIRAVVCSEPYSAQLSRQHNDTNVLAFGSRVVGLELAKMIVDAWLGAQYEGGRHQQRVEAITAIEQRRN
Description: Competitive inhibition of Escherichia coli RPIB assessed as ratio of Km/Ki using D-ribose-5-phosphate as substrate by Cheng-Prusoff equation analysis.

Assay [3] addresses T3, Ribose-5-phosphate isomerase B (Mycobacterium tuberculosis) (UniProt P9WKD7).
T3 sequence (whole entry): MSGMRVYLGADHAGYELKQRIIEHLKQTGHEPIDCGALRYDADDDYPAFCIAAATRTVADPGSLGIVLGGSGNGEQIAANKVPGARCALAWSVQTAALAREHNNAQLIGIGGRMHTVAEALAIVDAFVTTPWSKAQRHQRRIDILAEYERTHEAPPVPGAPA
Description: Competitive inhibition of Mycobacterium tuberculosis RPIB assessed as ratio of Km/Ki using D-ribose-5-phosphate as substrate by Cheng-Prusoff equation analysis.

Assay [4] is described as follows: Selectivity ratio of Km/Ki for Mycobacterium tuberculosis RpiB to Km/Ki for Spinacia oleracea RpiA.

Turning to `O=S(=O)(O)CC[C@H]1OC(O)[C@H](O)[C@@H]1O` (some centres not stated), the Ratio stood at 26 in assay [1], 9 in assay [2] and 19 in assay [3]. For the same compound, in assay [4], the Selectivity ratio is 0.7.
As to `CC(C(C(=O)O)C(=O)O)[C@@H](O)[C@@H](O)[C@@H](O)CCC(=O)O` (some centres not stated), the Ratio in assay [1] is less than 4; in assay [3], 7. Besides, in assay [4], the Selectivity ratio is greater than 1.7.
As to `CC(C(C(=O)O)C(=O)O)[C@@H](O)[C@@H](O)[C@@H](O)CCP(=O)(O)O` (some centres not stated), the Ratio in assay [1] is less than 4; in assay [3], 26. Moreover, the Selectivity ratio in assay [4] was greater than 6.5.
`O=S(=O)(O)OC[C@H]1OC(O)[C@H](O)[C@@H]1O` (some centres not stated): the Ratio in assay [1] was found to be 17; in assay [2], 18; in assay [3], 53. For the same compound, the Selectivity ratio in assay [4] amounted to 3.1.
As for `O=C(O)C(C[C@H]1OC(O)[C@H](O)[C@@H]1O)C(=O)O` (some centres not stated), the Ratio in assay [1] was 7; in assay [2] it was 2; in assay [3], 6. For the same compound, in assay [4], the Selectivity ratio worked out at 0.8.
Turning to `O=C(O)[C@@H](O)[C@@H](O)[C@@H](O)COP(=O)(O)O` (single isomer, unassigned), the Ratio turned out to be 79 in assay [1] and 233 in assay [3]. For the same compound, in assay [4], the Selectivity ratio is 3.
With `O=C(O)[C@H](O)[C@H](O)[C@H](O)COP(=O)(O)O`, in assay [4], the Selectivity ratio is 4.5.

Source of the values: ChEMBL document CHEMBL5579804, “Synthesis and kinetic evaluation of phosphomimetic inhibitors targeting type B ribose-5-phosphate isomerase from Mycobacterium tuberculosis” (Bioorg Med Chem Lett, 2024).
